Assay results from patent publication US9474780B2, “GIP and GLP-1 co-agonist compounds” (Eli Lilly and Company, priority 2015, dated 2016).
Where “and” joins values, the source holds several entries; their conditions need not be identical. Identical values can stand only once.

What was measured:
[1] = molecular target: T1, human GLP-1R (Homo sapiens, UniProt P43220); assay type: binding
T1 construct: expressed in transfected cells; host or cells: 293HEK, Hygromycin-selected; crude plasma membranes
T1 sequence (P43220 24-463): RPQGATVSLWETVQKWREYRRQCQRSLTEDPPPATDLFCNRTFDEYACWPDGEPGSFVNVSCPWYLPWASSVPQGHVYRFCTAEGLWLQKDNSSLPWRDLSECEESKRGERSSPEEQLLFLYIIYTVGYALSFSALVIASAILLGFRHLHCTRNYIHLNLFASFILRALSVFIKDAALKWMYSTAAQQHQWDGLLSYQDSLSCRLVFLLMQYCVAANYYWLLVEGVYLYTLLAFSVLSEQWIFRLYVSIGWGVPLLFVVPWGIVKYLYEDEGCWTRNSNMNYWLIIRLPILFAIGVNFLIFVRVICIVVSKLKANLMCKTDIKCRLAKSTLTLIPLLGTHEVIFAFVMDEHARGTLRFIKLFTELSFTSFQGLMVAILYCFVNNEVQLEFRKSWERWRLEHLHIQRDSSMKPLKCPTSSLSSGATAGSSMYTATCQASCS

[2] = tested on: mouse islets; assay: Mouse islet insulin secretion; assay type: cell-based; settings: read-out: Mouse islet insulin secretion Mean ED50
Experimental: (§1) To assess action of compounds of the present invention in a system representing physiological GLP-1R and GIP-R expression levels insulin secretion, compounds are tested for effects on insulin secretion from wild-type rodent islets.
(§2) After common bile duct cannulation in male C57B1/6 mice (22-26 g) or male Sprague-Dawley rats (approx. 250 g), the pancreas is distended with Hank's buffer (3 ml for mice or 10 ml for rats, containing 2% BSA and 0.75 mg/ml Clzyme collagenase (VitaCyte). Subsequently, tissues are digested in Hank's buffer at 37° C. for 11-13 minutes (mice) or 14-16 minutes for rat pancreata. Purified islets (Histopaque-1100 gradient [Sigma-Aldrich], […] at 750× gravity) are cultured overnight in RPMI-1640 medium (Invitrogen) containing 10% FBS, 100 U/ml penicillin and 100 μg/ml streptomycin, and preconditioned by starvation in Earle's Balanced Salt Solution (EBSS) supplemented with 0.1% BSA and 2.8 mM glucose. Subsequently, islets are incubated in EBSS (Invitrogen) supplemented with 0.1% BSA, 2.8-11.2 mM glucose and increasing levels of compound (6 batches of 4 islets/condition). GLP-1(7-36)amide (30 nM) is used as a positive control. Insulin is measured over 90 minutes in supernatant using the MSD Insulin Assay (Meso Scale, Gaithersburg, Md.).

[3] = molecular target: Human GCGR (Homo sapiens, UniProt P47871); assay: Functional hGCGR cAMP assay in HEK-293 clonal cells
Sequence of Human GCGR (P47871 26-477): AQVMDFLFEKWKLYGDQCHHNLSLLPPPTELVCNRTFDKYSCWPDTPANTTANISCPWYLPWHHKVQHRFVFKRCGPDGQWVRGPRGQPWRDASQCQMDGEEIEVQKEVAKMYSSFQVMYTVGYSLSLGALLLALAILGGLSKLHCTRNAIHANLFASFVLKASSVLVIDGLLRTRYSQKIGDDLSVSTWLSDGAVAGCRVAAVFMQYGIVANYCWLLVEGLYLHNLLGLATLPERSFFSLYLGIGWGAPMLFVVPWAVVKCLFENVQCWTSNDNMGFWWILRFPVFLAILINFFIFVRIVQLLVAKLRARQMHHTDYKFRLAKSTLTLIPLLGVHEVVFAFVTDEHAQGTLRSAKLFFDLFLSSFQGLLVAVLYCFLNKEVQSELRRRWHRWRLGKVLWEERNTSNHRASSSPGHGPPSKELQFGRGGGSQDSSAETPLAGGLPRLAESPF

[4] = Rat in vivo insulin secretion following intravenous glucose (IVGTT); settings: s.c. 16 hour prior to glucose
Experimental: Male Wistar rats (Harlan Labs, Indianapolis, Ind.) are randomized by body weight and dosed 1.5 ml/kg s.c. 16 hour prior to glucose administration and then fasted. Doses are vehicle, 0.1, 0.3, 1, 3 and 10 nmol/kg. Animals are weighed, and then anesthetized with sodium pentobarbital (Nembutal Sodium solution; Ovation Pharmaceuticals) dosed i.p. (65 mg/kg, 30 mg/ml). A time zero blood sample is collected into EDTA tubes after which glucose is administered ([…], 5 ml/kg). Blood samples are collected at 2, 4, 6, 10, 20, and 30 minutes post glucose. Plasma glucose levels are determined using a Hitachi analyzer (Roche) and plasma insulin is measured by the MSD insulin assay (Meso Scale, Gaithersburg, Md.).

[5] = Weight loss, body composition and hepatic steatosis in DIO mice; assay type: in vivo, mouse; settings: for Blood Glucose: Day 15
Experimental: The effects on weight loss, body composition and hepatic steatosis in DIO mice for compounds of the present invention are evaluated in C57/BL6 DIO mice. […] Animals are individually housed in a temperature-controlled (24° C.) facility with a 12 hour light/dark cycle (lights on 22:00), and free access to food and water. […] Daily body weight and food intake are measured throughout the study. Absolute changes in body weight are calculated by subtracting the body weight of the same animal prior to the first injection of compound. […] On Day 15, blood glucose is measured with Accu-Chek glucometer (Roche) from tail vein blood and then animals may be sacrificed and livers removed and frozen. Liver triglycerides, determined from homogenates of livers collected at sacrifice, and plasma cholesterol are measured on a Hitachi Modular P clinical analyzer. Statistical comparisons between groups are done using one-way ANOVA followed by Dunnett's multiple comparison test. The ED50 for weight loss lowering is determined in GraphPad Prism using the non-linear fit tool.

[6] = Pharmacokinetics in cynomolgus monkeys; assay type: in vivo; settings: cynomolgus monkey, plasma, single SC 0.2 mg/kg, male monkeys, n = 2
Procedure, shortened: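 Single 0.2 mg/kg dose, intravenous or subcutaneous, in 20 mM citrate buffer pH 7.0; blood sampled from 2 to 312 hours post-dose. Plasma extracted with N-butanol, reconstituted in 30% acetonitrile/0.1% formic acid and quantified by LC/MS on a C5 column with Q-Exactive detection.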

[7] = molecular target: T2, human GIP-R (Homo sapiens, UniProt P48546); assay: Functional hGIP-R cAMP assay in HEK-293 clonal cells; settings: HEK293, read-out: Human GIP-R Emax
T2 sequence (P48546 22-466): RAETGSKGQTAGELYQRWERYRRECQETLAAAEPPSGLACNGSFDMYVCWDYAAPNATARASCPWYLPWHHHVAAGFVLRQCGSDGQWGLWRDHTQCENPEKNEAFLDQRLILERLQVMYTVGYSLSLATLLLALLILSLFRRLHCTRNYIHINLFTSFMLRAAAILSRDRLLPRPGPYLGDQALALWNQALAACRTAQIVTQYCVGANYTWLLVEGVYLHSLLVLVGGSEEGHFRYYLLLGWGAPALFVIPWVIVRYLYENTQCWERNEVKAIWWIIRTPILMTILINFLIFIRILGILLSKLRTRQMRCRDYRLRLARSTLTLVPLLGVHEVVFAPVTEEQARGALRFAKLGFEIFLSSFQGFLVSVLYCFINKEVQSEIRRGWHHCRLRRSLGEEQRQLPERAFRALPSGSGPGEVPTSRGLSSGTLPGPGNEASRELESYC
Experimental: After an incubation of 60 minutes at room temperature, the resulting increase in intracellular cAMP is quantitatively determined using the CisBio cAMP Dynamic 2 HTRF Assay Kit (Bedford, Mass.). Briefly, cAMP levels within the cell are detected by adding the cAMP-d2 conjugate in cell lysis buffer (20 μl) followed by the antibody anti-cAMP-Eu^3+-Cryptate, also in cell lysis buffer (20 μl). The resulting competitive assay is incubated for at least 60 minutes at room temperature, then detected using a PerkinElmer Envision® instrument with excitation at 320 nm and emission at 665 nm and 620 nm Envision units (emission at 665 nm/620 nm*10,000) are inversely proportional to the amount of cAMP present and are converted to nM cAMP per well using a cAMP standard curve. […] A relative EC50 value and percent top (Emax) is derived by non-linear regression analysis using the percent maximal response versus the concentration of the compound of the present invention, fitted to a four-parameter logistic equation.

[8] = molecular target: T1, human GLP-1R; assay: Functional hGLP-1R cAMP assay in HEK-293 clonal cells; assay type: cell-based; settings: HEK293; percent of maximal response of hGLP-1(7-36)NH2
[9] = tested on: rat islets; assay: Rat islet insulin secretion; assay type: cell-based; settings: read-out: Rat islet insulin secretion Mean ED50
Experimental: as §1, §2

[10] = molecular target: T3, GIP receptor (Mus musculus, UniProt Q0P543); assay: Intracellular cAMP in GLUTag incretin-secreting cells; assay type: cell-based, murine; settings: 0.001-3 μM
T3 construct: endogenous in cells; host or cells: GLUTag cells (murine enteroendocrine line)
T3 sequence (Q0P543 19-460): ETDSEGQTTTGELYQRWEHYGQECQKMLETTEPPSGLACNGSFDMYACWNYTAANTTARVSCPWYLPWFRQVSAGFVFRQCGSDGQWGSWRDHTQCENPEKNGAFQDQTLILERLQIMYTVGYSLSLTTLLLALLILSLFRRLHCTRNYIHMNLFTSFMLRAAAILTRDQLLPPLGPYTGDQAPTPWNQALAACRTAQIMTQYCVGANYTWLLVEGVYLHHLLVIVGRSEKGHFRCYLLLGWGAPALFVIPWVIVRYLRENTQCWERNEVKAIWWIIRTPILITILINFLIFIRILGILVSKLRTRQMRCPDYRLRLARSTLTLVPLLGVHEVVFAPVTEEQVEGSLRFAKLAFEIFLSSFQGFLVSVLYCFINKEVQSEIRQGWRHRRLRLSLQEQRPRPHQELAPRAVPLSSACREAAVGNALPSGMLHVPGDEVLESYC
Experimental: On the day of the assay, media is decanted from cells and 50 μl EBSS Buffer (0.1% BSA, 2 mM glucose and 0.25 mM IBMX) containing a range of compound concentrations (0.001-3 μM) is added to cells. The plate is incubated at 37° C. for one hour and cAMP levels determined using Cisbio Dynamic 2 cAMP HTRF kit (Bedford, Mass.). 25 μl of anti-cAMP cryptate and 25 μl cAMP d2 is added to each well and plates incubated for one hour at room temperature. […] Data is analyzed with GraphPad using a 4-parameter non-linear logistic algorithm

## CC[C@H](C)[C@H](NC(=O)[C@H](CC(C)C)NC(=O)[C@H](Cc1c[nH]c2ccccc12)NC(=O)[C@H](CCC(N)=O)NC(=O)[C@@H](NC(=O)[C@H](Cc1ccccc1)NC(=O)[C@H](C)NC(=O)[C@H](CCCCNC(=O)COCCOCCNC(=O)COCCOCCNC(=O)CC[C@H](NC(=O)CCCCCCCCCCCCCCCCC(=O)O)C(=O)O)NC(=O)[C@H](CCC(N)=O)NC(=O)[C@H](C)NC(=O)[C@@H](NC(=O)[C@H](CCCCN)NC(=O)[C@H](CC(=O)O)NC(=O)[C@H](CC(C)C)NC(=O)C(C)(C)NC(=O)[C@@H](NC(=O)[C@H](CO)NC(=O)[C@H](Cc1ccc(O)cc1)NC(=O)[C@H](CC(=O)O)NC(=O)[C@H](CO)NC(=O)[C@@H](NC(=O)[C@H](Cc1ccccc1)NC(=O)[C@@H](NC(=O)CNC(=O)[C@H](CCC(=O)O)NC(=O)C(C)(C)NC(=O)[C@@H](N)Cc1ccc(O)cc1)[C@@H](C)O)[C@@H](C)O)[C@@H](C)CC)[C@@H](C)CC)C(C)C)C(=O)N[C@@H](C)C(=O)NCC(=O)NCC(=O)N1CCC[C@H]1C(=O)N[C@@H](CO)C(=O)N[C@@H](CO)C(=O)NCC(=O)N[C@@H](C)C(=O)N1CCC[C@H]1C(=O)N1CCC[C@H]1C(=O)N1CCC[C@H]1C(=O)N[C@@H](CO)C(N)=O [Example 3]
[1]; normalized by factor 4.53 from native GIP and GLP-1 binding
  Molar ratio of hGLP-1R/hGIP-R: 3.53
[1]; ratio of Ki values
  Absolute ratio of hGLP-1R/hGIP-R: 16
[2]
  EC50: 58.9 nM
[3]
  EC50: > 1000 nM
[4]
  % max increase of insulin AUC: 314 +/− 38% and 219 +/− 19%
  ED50 for insulin, rat IVGTT: 1.00 nmol/kg and 1.42 nmol/kg
[5]; Table 8, 10 nmol/kg
  % Change from starting body weight: −13.38 ± 0.88 %
  % Change from starting fat mass: −20.76 ± 2.42 %
[5]; Table 8, 30 nmol/kg
  % Change from starting body weight: −18.13 ± 1.44 %
  % Change from starting fat mass: −30.90 ± 2.06 %
[5]; Table 8, 100 nmol/kg
  % Change from starting body weight: −25.84 ± 1.93 %
  % Change from starting fat mass: −45.92 ± 2.15 %
[5]; Table 11, 10 nmol/kg
  Plasma Cholesterol: 213.2 ± 15.54 mg/dL
  Plasma Triglycerides: 30.38 ± 8.23 mg/dL
  Blood Glucose: 109.5 ± 2.35 mg/dL
[5]; Table 11, 30 nmol/kg
  Plasma Cholesterol: 177.4 ± 16.58 mg/dL
  Plasma Triglycerides: 21.32 ± 2.48 mg/dL
  Blood Glucose: 107.6 ± 1.32 mg/dL
[5]; Table 11, 100 nmol/kg
  Plasma Cholesterol: 194.00 ± 14.40 mg/dL
  Plasma Triglycerides: 20.55 ± 4.60 mg/dL
  Blood Glucose: 102.00 ± 0.50 mg/dL
[6]
  CL/F: 1.3 mL/h/kg
  Cmax: 3000 ng/mL
[6]; read-out: Mean AUC0-inf
  AUC(0-inf): 153 µg·h/mL
[6]; read-out: Mean T1/2 (converted)
  half-life: 34 h
[6]; read-out: Mean Tmax
  Tmax: 8 h
[7]
  Emax: 106 ± 3%
[8]
  Emax: 96.2 ± 6.2%
[9]
  EC50: 34.9 nM

## CC[C@H](C)[C@H](NC(=O)[C@H](Cc1ccccc1)NC(=O)[C@H](CCC(=O)O)NC(=O)[C@H](CCCCN)NC(=O)[C@H](C)NC(=O)[C@H](C)NC(=O)[C@H](CCC(N)=O)NC(=O)CNC(=O)[C@H](CCC(=O)O)NC(=O)[C@H](CC(C)C)NC(=O)[C@H](Cc1ccc(O)cc1)NC(=O)[C@H](CO)NC(=O)[C@H](CO)NC(=O)[C@@H](NC(=O)[C@H](CC(=O)O)NC(=O)[C@H](CO)NC(=O)[C@@H](NC(=O)[C@H](Cc1ccccc1)NC(=O)[C@@H](NC(=O)CNC(=O)[C@H](CCC(=O)O)NC(=O)[C@H](C)NC(=O)[C@@H](N)Cc1c[nH]cn1)[C@@H](C)O)[C@@H](C)O)C(C)C)C(=O)N[C@@H](C)C(=O)N[C@@H](Cc1c[nH]c2ccccc12)C(=O)N[C@@H](CC(C)C)C(=O)N[C@H](C(=O)N[C@@H](CCCCN)C(=O)NCC(=O)N[C@@H](CCCNC(=N)N)C(N)=O)C(C)C [GLP-1,7-36-NH2]
[10]
  cAMP accumulation in GLUTag cells: fails to induce any changes in cAMP at all concentrations tested
